Test results: article PMC9290024 (ACS Medicinal Chemistry Letters, 2022)

Columns and labels:
[1] = Stability in human hepatocytes; format: in vitro ADME; details: 0.5 μM, 120 min
[2] = Stability in mouse hepatocytes; format: in vitro ADME; details: 0.5 μM, 60 min
[3] = Stability in rat hepatocytes; format: in vitro ADME; details: 0.5 μM, 60 min
[4] = Pharmacokinetics in CD-1 IGS mouse; details: mouse PK studies; for parent recovered in feces following iv administration: data not shown

SMILES	scaled Clint, human hepatocytes [1]	scaled Clint, mouse hepatocytes [2]	scaled Clint, rat hepatocytes [3]	oral absorption [4]	parent recovered in feces following iv administration [4]
Cc1ccc(F)c2cc(C(=O)N[C@@H]3CCC[C@H](N4CC[C@H](N(C)S(C)(=O)=O)C4)C3)[nH]c12 [EPZ-719, reference compound]	51 mL min^–1 kg^–1	721 mL min^–1 kg^–1	137 mL min^–1 kg^–1		
CC(=O)N1CCN([C@H]2CCC[C@@H](NC(=O)c3cc4c(F)ccc(C)c4[nH]3)C2)CC1 [EZM0414]	9 mL min^–1 kg^–1	216 mL min^–1 kg^–1	154 mL min^–1 kg^–1		
CC(=O)N1CCN(c2cccc(NC(=O)c3cc4c(F)ccc(C)c4[nH]3)c2)CC1 [compound 3]	32 mL min^–1 kg^–1	678 mL min^–1 kg^–1	283 mL min^–1 kg^–1		
Cc1ccc(F)c2cc(C(=O)N[C@@H]3CCC[C@H](N4CCN5C(=O)CC[C@H]5C4)C3)[nH]c12 [compound 7]	23 mL min^–1 kg^–1	425 mL min^–1 kg^–1	69 mL min^–1 kg^–1		
CC(=O)N1CC[C@H]2CN([C@H]3CCC[C@@H](NC(=O)c4cc5c(F)ccc(C)c5[nH]4)C3)C[C@H]21 [compound 8]	18 mL min^–1 kg^–1	889 mL min^–1 kg^–1	265 mL min^–1 kg^–1	reasonable oral absorption	17–30%
CC(=O)N1CC[C@H]2[C@@H]1CCN2[C@H]1CCC[C@@H](NC(=O)c2cc3c(F)ccc(C)c3[nH]2)C1 [compound 9]	5 mL min^–1 kg^–1	103 mL min^–1 kg^–1	72 mL min^–1 kg^–1	reasonable oral absorption	17–30%
